Like-named read-outs stand apart in the source and are kept apart here.
Legend:
[1] = system: Serr. marcescens ATCC 13880; experiment: Antimicrobial activity, agar dilution; assay type: cell-based, Serratia marcescens; details: Agar Dextrose dilutions, 37°C, 20 heures
Source text: (§1) L'activité pharmacologique antimicrobienne de ces composés a été étudiée selon les références exposées ci-dessous.
(§2) Activité pharmacologique antimicrobienne : G.L. Daquet et Y.A. Chabbect, techniques en bactériologie, Vol. 3, Flammarion Médecine-Sciences, Paris 1972, et W.B. Hugo et A.D. Rusell, Pharmaceutical Microbiology, Blackwell Scientific Publications, London, 1977.
(§3) Milieu de culture et solvant : Agar d'antibiotiques n° 1 (Oxoid CM 327) Bouillon de triptone-soja (Oxoid CM 129) Solution Physiologique Ringer 1/4 (Oxoid BR 52) Agar Dextrose (BBL 11165)
(§4) Microorganismes : "Bacillus subtilis" ATCC 6633 "Citrobacter freundii" ATCC 112606 "Enterobacter aerogenes" ATCC 15038 "Enterobacter cloacae" ATCC 23355 "Bacillus cereus" ATCC 1178 "Escherichia coli" ATCC 10799 "Escherichia coli" ATCC 23559 "Klebsiella pneumoniae" ATCC 10031 "Proteus vulgaris" ATCC 8427 "Morg. morganii" ATCC 8019 "Pseudomonas aeruginosa" ATCC 9721 "Pseudomonas aeruginosa" ATCC 10145 "Salmonella typhimurium" ATCC 14028 "Salmonella typhimurium" ATCC 6539 "Serratia marcescens" ATCC 13880 "Shigella flexnerii" ATCC 12022 "Staphylococcusepidermis" ATCC 155-1 "Staphylococcus aureus" ATCC 25178 "Streptococcus faecalis" ATCC 10541.
(§5) Chacun des microorganismes est ensemencé par strie dans des tubes d'Agar d'antibiotiques n° 1, et mis en incubation pendant 20 heures à 37°C. Ensuite, on prend une anse de culture, on ensemence dans un bouillon de Triptone-soja et on incube pendant 20 heures à 37°C. On dilue à 1/4 la culture obtenue avec une solution physiologique Ringer, de façon à obtenir une suspension normalisée de […] pour chaque organisme.
(§6) A partir d'une solution de 100 µg/ml, chaque produit est dilué dans l'Agar Dextrose (préalablement fondu et maintenu à 50°C) par dilutions successives de façon à obtenir les concentrations suivantes : 64-32-16-8-4-2-1-0,5-0,25-0,125 µg de dérivé/ml du milieu.
(§7) Postérieurement, chaque concentration de chaque produit est répartie dans des boîtes de Petri de 10 cm de diamètre, à raison de 10 ml de milieu par boîte et autant de boîtes que de microorganismes à tester.
(§8) Une fois le milieu refroidi, les boîtes sont ensemencées avec les inoculations à raison de 0,4 ml d'inoculation par boîte. On les étend avec une anse de Driglasky et on recueille le surnageant. Les boîtes ensemencées sont incubées à 37°C pendant 20 heures.
(§9) Les résultats obtenus sont décrits dans les tableaux suivants. Les concentrations sont données en µg/ml.

Morg. morganii ATCC 8019 = experiment: Antimicrobial activity, agar dilution; assay type: cell-based; details: Agar Dextrose dilutions, 37°C, 20 heures
Source text: as §1, §2, §3, §4, §5, §6, §7, §8, §9

[2] = system: Staph. epidermidis ATCC 155-1; experiment: Antimicrobial activity, agar dilution; assay type: cell-based; details: Agar Dextrose dilutions, 37°C, 20 heures; for MIC: Staphylococcus epidermidis, ATCC155, 20 h, read-out: Activité pharmacologique antimicrobienne (concentrations)
Source text: as §1, §2, §3, §4, §5, §6, §7, §8, §9

[3] = system: Proteus vulgaris ATCC 8427; experiment: Antimicrobial activity, agar dilution; assay type: cell-based; details: Agar Dextrose dilutions, 37°C, 20 heures; for MIC: Proteus vulgaris, ATCC8427, 20 h, read-out: Activité pharmacologique antimicrobienne (concentrations)
Source text: as §1, §2, §3, §4, §5, §6, §7, §8, §9

[4] = system: Bacillus cereus ATCC 11778; experiment: Antimicrobial activity, agar dilution; assay type: cell-based; details: Agar Dextrose dilutions, 37°C, 20 heures; for MIC: Bacillus cereus, ATCC11778, 20 h, read-out: Activité pharmacologique antimicrobienne (concentrations)
Source text: as §1, §2, §3, §4, §5, §6, §7, §8, §9

[5] = system: Shigella flexnerii ATCC 12022; experiment: Antimicrobial activity, agar dilution; assay type: cell-based; details: ATCC12022, 20 h, Agar Dextrose dilutions, 37°C, 20 heures, read-out: Activité pharmacologique antimicrobienne (concentrations)
Source text: as §1, §2, §3, §4, §5, §6, §7, §8, §9

[6] = system: Bacillus subtilis ATCC 6633; experiment: Antimicrobial activity, agar dilution; assay type: cell-based; details: ATCC6633, 20 h, Agar Dextrose dilutions, 37°C, 20 heures, read-out: Activité pharmacologique antimicrobienne (concentrations)
Source text: as §1, §2, §3, §4, §5, §6, §7, §8, §9

[7] = system: Ps. aeruginosa ATCC 10145; experiment: Antimicrobial activity, agar dilution; assay type: cell-based; details: Pseudomonas aeruginosa, ATCC10145, 20 h, Agar Dextrose dilutions, 37°C, 20 heures, read-out: Activité pharmacologique antimicrobienne (concentrations)
Source text: as §1, §2, §3, §4, §5, §6, §7, §8, §9

Ps. aeruginosa ATCC 9721 = experiment: Antimicrobial activity, agar dilution; assay type: cell-based; details: Pseudomonas aeruginosa, ATCC9721, 20 h, Agar Dextrose dilutions, 37°C, 20 heures, read-out: Activité pharmacologique antimicrobienne (concentrations)
Source text: as §1, §2, §3, §4, §5, §6, §7, §8, §9

Sal. typhi ATCC 6539 = experiment: Antimicrobial activity, agar dilution; assay type: cell-based; details: Salmonella enterica, 20 h, read-out: Activité pharmacologique antimicrobienne (concentrations)
Source text: as §1, §2, §3, §4, §5, §6, §7, §8, §9

[8] = system: Escherichia coli ATCC 23559; experiment: Antimicrobial activity, agar dilution; assay type: cell-based; details: Agar Dextrose dilutions, 37°C, 20 heures
Source text: as §1, §2, §3, §4, §5, §6, §7, §8, §9

[9] = system: Escherichia coli ATCC 10799; experiment: Antimicrobial activity, agar dilution; assay type: cell-based; details: Agar Dextrose dilutions, 37°C, 20 heures; for MIC: Escherichia coli, ATCC10799, 20 h, read-out: Activité pharmacologique antimicrobienne (concentrations)
Source text: as §1, §2, §3, §4, §5, §6, §7, §8, §9

Ent. cloacae ATCC 23355 = experiment: Antimicrobial activity, agar dilution; assay type: cell-based, Enterobacter cloacae; details: Agar Dextrose dilutions, 37°C, 20 heures
Source text: as §1, §2, §3, §4, §5, §6, §7, §8, §9

[10] = system: Citr. freundii ATCC 11606; experiment: Antimicrobial activity, agar dilution; assay type: cell-based, Citrobacter freundii; details: Agar Dextrose dilutions, 37°C, 20 heures; for MIC: Citrobacter freundii, ATCC11606, 20 h, read-out: Activité pharmacologique antimicrobienne (concentrations)
Source text: as §1, §2, §3, §4, §5, §6, §7, §8, §9

[11] = system: Sal. typhimurium ATCC 14028; experiment: Antimicrobial activity, agar dilution; assay type: cell-based, Salmonella typhimurium; details: Agar Dextrose dilutions, 37°C, 20 heures; for MIC: Salmonella enterica, 20 h, read-out: Activité pharmacologique antimicrobienne (concentrations)
Source text: as §1, §2, §3, §4, §5, §6, §7, §8, §9

[12] = system: Strep. faecalis ATCC 10541; experiment: Antimicrobial activity, agar dilution; assay type: cell-based, Streptococcus faecalis; details: Agar Dextrose dilutions, 37°C, 20 heures
Source text: as §1, §2, §3, §4, §5, §6, §7, §8, §9

[13] = system: Ent. aerogenes ATCC 15038; experiment: Antimicrobial activity, agar dilution; assay type: cell-based, Enterobacter aerogenes; details: Klebsiella aerogenes, ATCC15038, 20 h, Agar Dextrose dilutions, 37°C, 20 heures, read-out: Activité pharmacologique antimicrobienne (concentrations)
Source text: as §1, §2, §3, §4, §5, §6, §7, §8, §9

Staph. aureus ATCC 25178 = experiment: Antimicrobial activity, agar dilution; assay type: cell-based, Staphylococcus aureus; details: Agar Dextrose dilutions, 37°C, 20 heures; for MIC: Staphylococcus aureus, ATCC25178, 20 h, read-out: Activité pharmacologique antimicrobienne (concentrations)
Source text: as §1, §2, §3, §4, §5, §6, §7, §8, §9

[14] = system: Kleb. pneumoniae ATCC 10031; experiment: Antimicrobial activity, agar dilution; assay type: cell-based, Klebsiella pneumoniae; details: Agar Dextrose dilutions, 37°C, 20 heures
Source text: as §1, §2, §3, §4, §5, §6, §7, §8, §9

[15] = Solubility in water and at pH 7.4; assay type: physicochemical
Source text: Un grand nombre des composés de l'invention manifestent une augmentation de la solubilité dans l'eau ainsi que de la solubilité à pH 7,4 lorsqu'on compare avec les composés de référence. L'augmentation de solubilité au pH physiologique peut favoriser l'absorption du produit et la solubilité élevée dans l'eau permet l'administration du composé par voie parentérale.

C[C@H](N)C(=O)N[C@@H]1CN(c2nc3c(cc2F)c(=O)c(C(=O)O)cn3C2CC2)[C@H]1C [Exemple 4aA, chlorhydratede l'acide 7-[(2S,3R)-2-méthyl-3-Ala-amino-1-azétidinyl]-1-cyclopropyl-6-fluoro-1,4-dihydro-4-oxo-1,8-naphtyridine-3-carboxylique]
Activité pharmacologique antimicrobienne (concentrations) [1]: 1 µg/ml | Activité pharmacologique antimicrobienne (concentrations) ([1]; listed as 4aa): 4 µg/ml | Activité pharmacologique antimicrobienne (concentrations) (Morg. morganii ATCC 8019): 0,5 µg/ml | Activité pharmacologique antimicrobienne (concentrations) (Morg. morganii ATCC 8019; listed as 4aa): 2 µg/ml | Activité pharmacologique antimicrobienne (concentrations) [2]: 1 µg/ml | MIC [2]: 0.5 µg/mL | Activité pharmacologique antimicrobienne (concentrations) [3]: 2 µg/ml | MIC [3]: 1 µg/mL | Activité pharmacologique antimicrobienne (concentrations) [4]: 0,5 µg/ml | MIC [4]: 1 µg/mL | MIC [5]: 0.12 µg/mL | MIC [6]: 0.12 µg/mL | MIC [7]: 8 µg/mL | MIC (Ps. aeruginosa ATCC 9721): 4 µg/mL | MIC (Sal. typhi ATCC 6539): 0.5 µg/mL | Activité pharmacologique antimicrobienne (concentrations) [8]: 0,12 µg/ml | Activité pharmacologique antimicrobienne (concentrations) ([8]; listed as 4aa): 0,25 µg/ml | Activité pharmacologique antimicrobienne (concentrations) [9]: 1 µg/ml | MIC [9]: 0.5 µg/mL | Activité pharmacologique antimicrobienne (concentrations) (Ent. cloacae ATCC 23355): 0,12 µg/ml | Activité pharmacologique antimicrobienne (concentrations) (Ent. cloacae ATCC 23355; listed as 4aa): 0,25 µg/ml | Activité pharmacologique antimicrobienne (concentrations) [10]: 0,5 µg/ml | MIC [10]: 0.25 µg/mL | Activité pharmacologique antimicrobienne (concentrations) [11]: 1 µg/ml | MIC [11]: 0.5 µg/mL | Activité pharmacologique antimicrobienne (concentrations) [12]: 8 µg/ml | Activité pharmacologique antimicrobienne (concentrations) ([12]; listed as 4aa): 1 µg/ml | MIC [13]: 0.5 µg/mL | Activité pharmacologique antimicrobienne (concentrations) (Staph. aureus ATCC 25178): 0,25 µg/ml | MIC (Staph. aureus ATCC 25178): 0.5 µg/mL | Activité pharmacologique antimicrobienne (concentrations) [14]: 0,06 µg/ml | Activité pharmacologique antimicrobienne (concentrations) ([14]; listed as 4aa): 0,5 µg/ml | solubility ([15]; pH 7,4, read-out: Solubilité pH 7,4): > 500 µg/mL | solubility ([15]; water, read-out: Solubilité dans l'eau): > 500 µg/mL

CC(C)C[C@H](N)C(=O)N[C@@H]1CN(c2nc3c(cc2F)c(=O)c(C(=O)O)cn3C2CC2)[C@H]1C [Exemple 4aL, chlorhydratede l'acide 7-[(2S,3R)-2-méthyl-3-Leu-amino-1-azétidinyl]-1-cyclopropyl-6-fluoro-1,4-dihydro-4-oxo-1,8-naphtyridine-3-carboxylique]
MIC ([1]; Serratia marcescens, ATCC13880, 20 h, read-out: Activité pharmacologique antimicrobienne (concentrations)): 0.25 µg/mL | MIC (Morg. morganii ATCC 8019; Morganella morganii, ATCC8019, 20 h, read-out: Activité pharmacologique antimicrobienne (concentrations)): 0.25 µg/mL | MIC [2]: 0.25 µg/mL | MIC [3]: 0.25 µg/mL | MIC [4]: 0.12 µg/mL | MIC [5]: 0.06 µg/mL | MIC [6]: 0.12 µg/mL | MIC [7]: 8 µg/mL | MIC (Ps. aeruginosa ATCC 9721): 2 µg/mL | MIC (Sal. typhi ATCC 6539): 0.12 µg/mL | MIC ([8]; Escherichia coli, ATCC23559, 20 h, read-out: Activité pharmacologique antimicrobienne (concentrations)): 0.06 µg/mL | MIC [9]: 0.12 µg/mL | MIC (Ent. cloacae ATCC 23355; Enterobacter cloacae, ATCC23355, 20 h, read-out: Activité pharmacologique antimicrobienne (concentrations)): 0.12 µg/mL | MIC [10]: 0.12 µg/mL | MIC [11]: 0.12 µg/mL | MIC ([12]; Enterococcus faecalis, ATCC10541, 20 h, read-out: Activité pharmacologique antimicrobienne (concentrations)): 2 µg/mL | MIC [13]: 0.12 µg/mL | MIC (Staph. aureus ATCC 25178): 0.25 µg/mL | MIC ([14]; Klebsiella pneumoniae, ATCC10031, 20 h, read-out: Activité pharmacologique antimicrobienne (concentrations)): 0.06 µg/mL | solubility ([15]; pH 7): > 500 µg/mL | solubility ([15]; water): > 500 µg/mL

From patent publication EP0514268A1, “Substituted amino acid azetidinyl pyridone derivatives, their preparation and use as medicines” (LABORATORIOS DEL DR. ESTEVE, S.A., priority 1991, dated 1992)
